The source of these data is patent US20250381307A1, “RETRO-AAV AND USE IN TREATING NEURODEGENERATIVE DISEASES” (priority 2023, published 2025).

The target in series [1] is T1, rM3Ds (Rattus norvegicus, UniProt P08483, A177S/A238G/A489L/DEL261-437/DEL441-478/E258S/I253V/I483M/INS256[…]/K178L/K182A/K255R/K484R/K486H/L173F/L482A/M480V/R171S/R176Q/R179M/S481M/T174R/T181R/T257A/Y148C).
T1 sequence (P08483 with tags, fused parts or gaps Y148C/R171S/L173F/T174R/R176Q/A177S/K178L/R179M/T181R/K182A/A238G/I253V/K255R/INS256[…]/T257A/E258S/DEL261-437/DEL441-478/M480V/S481M/L482A/I483M/K484R/K486H/A489L): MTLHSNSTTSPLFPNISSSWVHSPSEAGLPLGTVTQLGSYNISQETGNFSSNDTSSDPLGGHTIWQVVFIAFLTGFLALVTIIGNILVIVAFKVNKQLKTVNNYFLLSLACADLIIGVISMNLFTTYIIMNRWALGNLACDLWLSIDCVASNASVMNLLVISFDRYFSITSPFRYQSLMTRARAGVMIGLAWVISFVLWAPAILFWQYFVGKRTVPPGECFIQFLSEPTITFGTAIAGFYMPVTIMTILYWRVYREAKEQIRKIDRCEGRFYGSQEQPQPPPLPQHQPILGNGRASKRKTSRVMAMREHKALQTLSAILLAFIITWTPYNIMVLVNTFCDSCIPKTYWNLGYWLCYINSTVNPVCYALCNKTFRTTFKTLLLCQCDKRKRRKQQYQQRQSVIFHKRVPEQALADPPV
On the procedure: Monkeys were continuously monitored by veterinarians after lesion.
Dyskinesia score criteria were: 0: Absent. 1: Mild, fleeting, present <30% of the observation period.
Each block included ten continuous trials.
Customized surface EMG electrodes were used for EMG recordings. […] The recording procedure was conducted immediately after DCZ infusions.

A short description of series [2]: CSF concentration of DCZ by LC-MS. Format: in vivo, macaques. The conditions noted are these: 24 hours after drug infusion, 0.3 mg/kg i.m., FIG. 24D.
Text: One month of washout was allowed before administration of DCZ.
Series [3] in a line: Locomotion test in naive macaques without viral injection. Format: in vivo. As to conditions: DCZ 0.3 mg/kg i.m., FIG. 35A-35G.
Series [4] is described as follows: Blood test of liver- and kidney-related factors during DCZ treatment. It is filed as in vivo, macaques. The conditions noted are these: FIG. 36B-36F. The source says: FIG. 36A-36F depict effects of D1-MSN activation on dyskinesia-like behavior and health state-related blood factors in parkinsonian macaques. FIG. 36A illustrates quantitation of dyskinesia score at 2 months, 4 months, and 8 months after treatment with DCZ. n=3 monkeys per group.

The target in series [5] is T1, rM3Ds. As to the kind of experiment: In vivo electrophysiological recording in caudate/putamen of MPP+ lesioned macaques. The arrangement: rM3Ds; 2A-EYFP (C); host or cells: AAV8R12-transduced striatal D1-MSNs of mice and cynomolgus macaques (in vivo and acute slices). On the procedure: Electrophysiological recording was performed through a recording chamber while the monkey was anesthetized. Neural responses were recorded by a 16-channel linear probe (Plexon Inc, Uprobe) driven by a mechanical microdrive (Alpha Omega, FlexMT). Signals were passed through a head stage (Plexon Inc, HST/16V-G20 LN) and then split and filtered between 300 Hz and 5 kHz to identify spiking activity with an amplifier system (Plexon Inc, OmniPlex). Detected spikes were then sorted by commercially available software (Plexon Inc, Offline Sorter) for further analysis. To quantify the effect of CNO/DCZ injection, neural activity was recorded for 60 minutes following CNO/DCZ injection. The response time-course for each channel was obtained by counting the spikes within every 10-minute window and then normalizing to the maximal.
To determine the effect of CNO/DCZ injection on the direction of signal change, we performed Pearson correlation between neural responses and time using the ‘corr’ function in Matlab, which generates the correlation coefficient ‘r’ and significant level ‘p’. A neuron was considered to have “Increased” activity when r>0 and p<0.05; and considered to have “Decreased” activity when r<0 and p<0.05. Otherwise, neurons were considered to be “Unchanged” in their neural activities. The responses of all increased neurons were then averaged after being normalized by the maximal response (Crowe et al., 2014; Dai and Wang, 2018; Hirokawa et al., 2019) following CNO/DCZ injection, and then plotted as a function of time to generate the normalized population response.

Take `CN1CCN(C2=Nc3ccccc3Nc3ccccc32)CC1` [DCZ, deschloroclozapine]: the “efficacy after extended prior L-Dopa administration” value in series [1] (4 months prior L-Dopa, 1 month washout, FIG. 24F-24L) is “did not affect the efficacy of DCZ treatment or the absence of dyskinesia”. For the same compound, the “alleviation of parkinsonian symptoms over long-term treatment” value in series [1] (8-month continuous treatment with DCZ) was “appeared to be consistent”. Further, the “motor skills” value in series [1] (DCZ, hand to mouth movement) was “a significant recovery of motor skills”. The “alleviation of symptoms after each dose at steady-state efficacy” value in series [1] (FIG. 24C) is listed as “at least 24 hours”. Also, the “parkinsonian symptoms” value in series [1] (MPP+ macaques with AAV8R12-G88P7-rM3Ds-2A-EYFP, DCZ 0.3 mg/kg i.m., L-Dopa/benserazide 20/5 mg/kg/day oral) is “a reversal of canonical parkinsonian symptoms in all tested monkeys”. Also, the “tremor” value in series [1] (after DCZ treatment, EMG) is listed as “great reduced or even eliminated”. Further, the “speed of reversal of symptoms” value in series [1] (initial phase of drug administration, FIG. 24B) was “faster reversal of symptoms than levodopa”. Further, the “dyskinesia” value in series [1] (long-term treatment) is listed as “dyskinesia-free”. Moreover, the “duration of effect (FIG. 18C)” value in series [1] (n=3 monkeys) is reported as “over 24 hr”. The “spontaneous movement in an observation cage” value in series [1] (systemic DCZ) is listed as “an increase in spontaneous movement”. For the same compound, the “DCZ levels in cerebrospinal fluid” value in series [2] is reported as “no detectable levels”. Besides, the “motor-related behaviors in naïve monkeys” value in series [3] is given as “did not alter motor-related behaviors”. Besides, the “blood levels of common liver- and kidney-related factors (ALT, AST, GGT, CREA, BUN)” value in series [4] is listed as “remained stable”. The “caudate/putamen cells activated (FIG. 15G)” value in series [5] (CNO 36 cells, DCZ 31 cells, saline 17.9%) worked out at 41.9%. Moreover, in series [5] (saline 33.4%), the “caudate/putamen cells inactivated (FIG. 15G)” value came out at 9.7%. The “caudate/putamen cells unchanged (FIG. 15G)” value in series [5] (saline 48.7%) came out at 48.4%.
